ChEMBL document CHEMBL2417474, “Synthesis, antiproliferative and anti-inflammatory activities of some novel 6-aryl-2-(p-(methanesulfonyl)phenyl)-4,5-dihydropyridazi-3(2H)-ones” (Eur J Med Chem, 2013)

Columns and labels:
[1] = test system: SF-295; experiment: Growth inhibition of human SF295 cells assessed as cell growth at 10 uM after 48 hrs by sulforhodamine B assay; type: functional; settings: SF-295, 48 h, read-out: Activity
[2] = Growth inhibition of human EKVX cells assessed as cell growth at 10 uM after 48 hrs by sulforhodamine B assay; type: functional; settings: read-out: Activity

Structure (SMILES)	growth at 10 µM [1] [%]	growth at 10 µM [2] [%]
Cc1cc(O)ccc1C1=NN(c2ccc(S(C)(=O)=O)cc2)C(=O)CC1	32.1	72.2
CCc1ccc(C2=NN(c3ccc(S(C)(=O)=O)cc3)C(=O)CC2)cc1	9.24	60.4
